Legend:
[1] = ABPM study, adverse events; assay type: in vivo, human; conditions: 75 mg, 28 days
Experimental: (§1) Safety was evaluated by assessment of clinical laboratory tests, physical examinations, and vital signs measurements from office visits at various time points during the study, and by the documentation of AEs.
Safety Set (SAF): All subjects who received at least one dose of double-blind study treatment were included in the SAF. Subjects were included in the treatment group corresponding to the Study Treatment that was actually received. This was the population used to summarize safety analyses collected during clinic visits and correspondence with site staff; summarization of baseline/demographic characteristics also presented for the SAF.

[2] = drug interaction study of vibegron and rifampin, pharmacokinetics; assay type: in vivo, human
[3] = vibegron exposure in special populations (renal impairment, CYP3A/P-gp inhibitor, elderly, females); assay type: in vivo, human
[4] = Phase 1 program safety (16 Phase 1 studies); assay type: in vivo; conditions: single doses 2 to 600 mg, multiple doses 25 to 400 mg up to 28 days
From the text: Safety data from 16 Phase 1 studies, which include 15 completed Phase 1 studies and 1 study that was terminated early (this study was terminated for reasons unrelated to efficacy or safety) was collected.

[5] = ABPM study, in-clinic vital signs; assay type: in vivo, human; conditions: SAF
Experimental: as §1
Tables 106, 107, and 108 show the changes to in-clinic measurements of systolic blood pressure, diastolic blood pressure, and heart rate over the treatment period.
For subjects with a body weight of at least about 65.4 kg, there was no difference between treatment and placebo in the number of subjects with a ≥5, ≥10, or ≥15 mm Hg increase in systolic blood pressure. The same was true for subjects over the age of 66.

[6] = vibegron 75 mg single dose + rifampin 600 mg QD
[7] = vibegron 75 mg single dose alone
[8] = Baseline to Day 28, subgroup Age <= 75th percentile (66 years)
[9] = Baseline to Day 28, subgroup Age > 75th percentile (66 years)
[10] = Baseline to Day 28, subgroup Body Weight <= 25th Percentile (65.4 kg)
[11] = Baseline to Day 28, subgroup Body Weight > 25th Percentile (65.4 kg)
[12] = Baseline to Day 28, subgroup Pre-existing hypertension: NO
[13] = Baseline to Day 28, subgroup Pre-existing hypertension: YES
[14] = Baseline to Day 28, subgroup eGFR <= 25th Percentile (72 mL/min/1.73 m^2)
[15] = Baseline to Day 28, subgroup eGFR > 25th Percentile (72 mL/min/1.73 m^2)

SMILES: O=C(Nc1ccc(C[C@@H]2CC[C@H]([C@H](O)c3ccccc3)N2)cc1)[C@@H]1CCc2nccc(=O)n21 [Vibegron, (6S)-N-[4-[[(2S,5R)−5-[(R)-hydroxy(phenyl)methyl]pyrrolidin−2-yl]methyl]phenyl]−4-oxo−7,8-dihydro−6H-pyrrolo[1,2-a]pyrimidine−6-carboxamide]
- Discontinued the study: Adverse Event, subjects n ([1]; Randomized N = 106): 2
- AECIs ([1]; Safety N = 106): 8 (7.5) n (%)
- AEs Leading to Treatment Discontinuation ([1]; Safety N = 106): 3 (2.8) n (%)
- Adverse event: Blood pressure increased ([1]; Safety N = 106): 0 n (%)
- Adverse event: Constipation ([1]; Safety N = 106): 2 (1.9) n (%)
- Adverse event: Diarrhea ([1]; Safety N = 106): 3 (2.8) n (%)
- Adverse event: Dry mouth ([1]; Safety N = 106): 3 (2.8) n (%)
- Adverse event: Fatigue ([1]; Safety N = 106): 3 (2.8) n (%)
- Adverse event: Haematuria ([1]; Safety N = 106): 3 (2.8) n (%)
- Adverse event: Headache ([1]; Safety N = 106): 4 (3.8) n (%)
- Adverse event: Hypertension ([1]; Safety N = 106): 5 (4.7) n (%)
- Adverse event: Hypotension ([1]; Safety N = 106): 1 (0.9) n (%)
- Adverse event: Increased residual urine ([1]; Safety N = 106): 0 n (%)
- Adverse event: Nasopharyngitis ([1]; Safety N = 106): 3 (2.8) n (%)
- Adverse event: Nausea ([1]; Safety N = 106): 3 (2.8) n (%)
- Adverse event: Tachycardia ([1]; Safety N = 106): 0 n (%)
- Adverse event: Upper respiratory tract infection ([1]; Safety N = 106): 5 (4.7) n (%)
- Adverse event: Urinary retention ([1]; Safety N = 106): 1 (0.9) n (%)
- Adverse event: Urinary tract infection ([1]; Safety N = 106): 3 (2.8) n (%)
- Fatal adverse event ([1]; Safety N = 106): 0 n (%)
- Serious adverse event (SAE) ([1]; Safety N = 106): 1 (0.9) n (%)
- Treatment emergent Adverse event (AE) ([1]; Safety N = 106): 49 (46.2) n (%)
- Treatment-related AECIs ([1]; Safety N = 106): 3 (2.8) n (%)
- Treatment-related SAE by the investigator ([1]; Safety N = 106): 0 n (%)
- AUC(0-t) ([2]; both sexes, human, in vivo, 75 mg, read-out: AUC0-t, geometric mean (% CV)): 1160 ng·h/mL
- Cmax ([2]; both sexes, human, in vivo, 75 mg, read-out: Cmax, geometric mean (% CV)): 82.3 ng/mL
- AUC(0-inf) ([2]; both sexes, human, in vivo, oral, 75 mg, read-out: AUC0-∞, geometric mean (% CV)): 1310 ng·h/mL
- half-life ([2]; both sexes, human, in vivo, oral, 75 mg, read-out: t1/2, geometric mean (% CV) (converted)): 84 h
- CL/F, geometric mean (% CV) [2, 6]: 57.3 (30.1) L/hr
- V/F, geometric mean (% CV) [2, 6]: 6140 (47.0) L
- CL/F, geometric mean (% CV) [2, 7]: 57.2 (39.7) L/hr
- V/F, geometric mean (% CV) [2, 7]: 6930 (48.6) L
- higher Cmax in elderly and females than healthy young males ([3]; elderly and females): 50-70%
- mean increase in AUC in subjects with moderate renal impairment vs normal renal function ([3]; moderate renal impairment): 1.6 fold
- tolerability across the Phase 1 program [4]: generally well tolerated
- In-clinic DBP (mmHg) change from baseline ≥5, subjects ([5]; Baseline to Day 28): 24 (23.3) n (%)
- In-clinic DBP (mmHg) change from baseline ≥10, subjects ([5]; Baseline to Day 28): 9 (8.7) n (%)
- In-clinic DBP (mmHg) change from baseline ≥15, subjects ([5]; Baseline to Day 28): 2 (1.9) n (%)
- In-clinic HR (bpm) change from baseline ≥5, subjects ([5]; Baseline to Day 28): 24 (23.3) n (%)
- In-clinic HR (bpm) change from baseline ≥10, subjects ([5]; Baseline to Day 28): 8 (7.8) n (%)
- In-clinic HR (bpm) change from baseline ≥15, subjects ([5]; Baseline to Day 28): 3 (2.9) n (%)
- In-clinic SBP (mmHg) change from baseline ≥5, subjects ([5]; Baseline to Day 28): 33 (32.0) n (%)
- In-clinic SBP (mmHg) change from baseline ≥10, subjects ([5]; Baseline to Day 28): 22 (21.4) n (%)
- In-clinic SBP (mmHg) change from baseline ≥15, subjects ([5]; Baseline to Day 28): 10 (9.7) n (%)
- In-clinic SBP change from baseline ≥5, subjects [5, 8]: 28 (34.6) n (%)
- In-clinic SBP change from baseline ≥10, subjects [5, 8]: 18 (22.2) n (%)
- In-clinic SBP change from baseline ≥15, subjects [5, 8]: 9 (11.1) n (%)
- In-clinic SBP change from baseline ≥5, subjects [5, 9]: 5 (22.7) n (%)
- In-clinic SBP change from baseline ≥10, subjects [5, 9]: 4 (18.2) n (%)
- In-clinic SBP change from baseline ≥15, subjects [5, 9]: 1 (4.5) n (%)
- In-clinic SBP change from baseline ≥5, subjects [5, 10]: 9 (32.1) n (%)
- In-clinic SBP change from baseline ≥10, subjects [5, 10]: 6 (21.4) n (%)
- In-clinic SBP change from baseline ≥15, subjects [5, 10]: 2 (7.1) n (%)
- In-clinic SBP change from baseline ≥5, subjects [5, 11]: 24 (32.0) n (%)
- In-clinic SBP change from baseline ≥10, subjects [5, 11]: 16 (21.3) n (%)
- In-clinic SBP change from baseline ≥15, subjects [5, 11]: 8 (10.7) n (%)
- In-clinic SBP change from baseline ≥5, subjects [5, 12]: 20 (31.3) n (%)
- In-clinic SBP change from baseline ≥10, subjects [5, 12]: 13 (20.3) n (%)
- In-clinic SBP change from baseline ≥15, subjects [5, 12]: 6 (9.4) n (%)
- In-clinic SBP change from baseline ≥5, subjects [5, 13]: 13 (33.3) n (%)
- In-clinic SBP change from baseline ≥10, subjects [5, 13]: 9 (23.1) n (%)
- In-clinic SBP change from baseline ≥15, subjects [5, 13]: 4 (10.3) n (%)
- In-clinic SBP change from baseline ≥5, subjects [5, 14]: 7 (23.3) n (%)
- In-clinic SBP change from baseline ≥10, subjects [5, 14]: 4 (13.3) n (%)
- In-clinic SBP change from baseline ≥15, subjects [5, 14]: 1 (3.3) n (%)
- In-clinic SBP change from baseline ≥5, subjects [5, 15]: 26 (35.6) n (%)
- In-clinic SBP change from baseline ≥10, subjects [5, 15]: 18 (24.7) n (%)
- In-clinic SBP change from baseline ≥15, subjects [5, 15]: 9 (12.3) n (%)
- In-clinic DBP (mmHg) change from baseline ≥5, subjects ([5]; Baseline to End of Treatment): 31 (29.5) n (%)

— patent US20230027066A1 (Urovant Sciences GmbH, priority 2019, published 2023)
